Test results: patent US10214492B2, “Heterocyclic inhibitors of MCT4” (Vettore, LLC, priority 2016, dated 2019)

Experiments:
[1] = Adjuvant-induced arthritis model in rat: Mechanical Allodynia test (MA, Von Frey); type: in vivo; conditions: SD rat, CFA-induced arthritis; PO 3 days post CFA; compared to Dexamethasone
[2] = Metabolic stability in rat liver microsomes (in vitro t1/2); type: in vitro ADME; conditions: for Rat microsome % 60 min: rat liver microsomes
Summary of the method: (§1)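 Liver microsomes (0.5 mg/mL final) incubated with test compound at 2 μM final plus NADPH; samples taken at 0, 15, 30, 45 and 60 min. Parent remaining quantified by LC-MS/MS; k from ln(% remaining) vs time regression, in vitro t1/2 = −0.693/k.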

[3] = Pharmacokinetic assay in rat (IV 3 mg/kg, PO 10 mg/kg); type: in vivo; conditions: Male Sprague-Dawley rat; for Rat F: oral bioavailability; for Rat F / half-life: PO 10 mg/kg; for half-life / Vd: plasma; for half-life: read-out: Rat t1/2 (converted); for Vd: volume of distribution, read-out: Rat Vss
[4] = Metabolic stability in mouse liver microsomes (in vitro t1/2); type: in vitro ADME; conditions: for Mouse microsome % 60 min: mouse liver microsomes
Summary of the method: as §1

[5] = biological target: MCT1 (Homo sapiens (Human), UniProt P53985); assay: Assay 4: MCT1-mediated lactate transport in BT20 breast cancer cells; type: cell-based; conditions: Table 27
Chain of MCT1 (P53985 whole entry): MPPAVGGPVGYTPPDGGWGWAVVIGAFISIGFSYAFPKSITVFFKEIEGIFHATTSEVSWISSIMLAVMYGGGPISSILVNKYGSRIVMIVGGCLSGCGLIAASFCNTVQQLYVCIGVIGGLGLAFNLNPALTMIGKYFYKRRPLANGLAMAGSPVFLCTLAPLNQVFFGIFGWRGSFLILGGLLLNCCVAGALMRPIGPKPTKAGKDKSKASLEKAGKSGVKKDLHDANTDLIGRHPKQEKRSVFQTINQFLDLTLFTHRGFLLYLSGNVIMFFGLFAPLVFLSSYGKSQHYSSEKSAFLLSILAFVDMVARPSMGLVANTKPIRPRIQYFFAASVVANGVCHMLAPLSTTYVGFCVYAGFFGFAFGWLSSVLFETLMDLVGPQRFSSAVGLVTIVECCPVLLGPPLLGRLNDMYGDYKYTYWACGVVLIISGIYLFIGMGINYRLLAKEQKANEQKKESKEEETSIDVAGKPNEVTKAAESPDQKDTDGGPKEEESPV
Chain of MCT1 (P35613 140-385 partner): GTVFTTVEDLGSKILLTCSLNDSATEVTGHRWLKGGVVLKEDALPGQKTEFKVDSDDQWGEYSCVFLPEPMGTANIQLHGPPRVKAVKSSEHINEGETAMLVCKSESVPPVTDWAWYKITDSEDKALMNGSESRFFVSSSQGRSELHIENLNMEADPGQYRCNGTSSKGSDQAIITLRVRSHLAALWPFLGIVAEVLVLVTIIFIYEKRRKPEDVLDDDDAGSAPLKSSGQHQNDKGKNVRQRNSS
Summary of the method: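 BT20 cells loaded with BCECF-AM (30 mM DMSO stock) for 5 min at 37° C, washed and resuspended in Tyrode's Solution pH 7.4. Lactate uptake tracked via BCECF intracellular pH signal after adding 10 mM L-lactate.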

[6] = Pharmacokinetic assay in mouse (IV 3 mg/kg, PO 10 mg/kg); type: in vivo; conditions: Male CD1 mouse; for Mouse F: oral bioavailability; for Mouse F / half-life: PO 10 mg/kg; for half-life / Vd: plasma; for half-life: read-out: Mouse t1/2 (converted); for Vd: volume of distribution, read-out: Mouse Vss
Excerpt: The following are assays that may be used to evaluate the pharmacokinetic properties of Formula (I) in mouse or rat. The assays follow a common procedure recited below.
1. […] For PO (oral gavage), DMSO/PEG400 (10:90). Formulations freshly prepared on the day of dosing or prior to dosing. Storage at room temperature.
2. Test Species: For Mouse: Male CD1 strain, approximately 6-8 weeks in age, approximately 20-30 g. For Rat: Male Sprague-Dawley strain, approximately 6-8 weeks in age, approximately 200-300 g.
3. Dose Level: For IV, 3 mg/kg. For PO, 10 mg/kg.
4. Number of animals: 3 per assay.
5. PK time points: For IV (plasma): 5 min, 15 min, 1, 2, 4, 6, 8, 24 h post dose. For PO (plasma): 15 min, 30 min, 1, 2, 4, 6, 8, 24 h post dose.
6. Blood Sample Collection and Processing. Blood was collected (˜0.2 mL per time point) from jugular vein. Blood of each sample was transferred into plastic micro centrifuge tubes containing anticoagulant of EDTA-K2. Blood samples were centrifuged at 2,000 g for 5 minutes at 4° C. to obtain plasma.
7. Samples Analysis: Plasma samples were analyzed using LC/MS/MS method, and pharmacokinetic parameters (half-life: t1/2; oral bioavailability: F; volume of distribution: Vss).

[7] = Metabolic stability in human liver microsomes (in vitro t1/2); type: in vitro ADME; conditions: for half-life at 2 µM: human liver microsomes 0.5 mg/mL, 2 μM compound, read-out: Human microsome t1/2, min; for Human microsome % 60 min: human liver microsomes
Summary of the method: as §1

[8] = Adjuvant-induced arthritis model in rat: Difference of Weight Bearing test (DWB); type: in vivo; conditions: SD rat, CFA-induced arthritis; PO 3 days post CFA; compared to Dexamethasone
[9] = biological target: MCT4 (Homo sapiens (Human), UniProt O15427); assay: Assay 3: MCT4-mediated lactate transport in MDA-MB-231 breast cancer cells; type: cell-based; conditions: MDA-MB-231 cells; lactate transport
Chain of MCT4 (O15427 whole entry, looked up): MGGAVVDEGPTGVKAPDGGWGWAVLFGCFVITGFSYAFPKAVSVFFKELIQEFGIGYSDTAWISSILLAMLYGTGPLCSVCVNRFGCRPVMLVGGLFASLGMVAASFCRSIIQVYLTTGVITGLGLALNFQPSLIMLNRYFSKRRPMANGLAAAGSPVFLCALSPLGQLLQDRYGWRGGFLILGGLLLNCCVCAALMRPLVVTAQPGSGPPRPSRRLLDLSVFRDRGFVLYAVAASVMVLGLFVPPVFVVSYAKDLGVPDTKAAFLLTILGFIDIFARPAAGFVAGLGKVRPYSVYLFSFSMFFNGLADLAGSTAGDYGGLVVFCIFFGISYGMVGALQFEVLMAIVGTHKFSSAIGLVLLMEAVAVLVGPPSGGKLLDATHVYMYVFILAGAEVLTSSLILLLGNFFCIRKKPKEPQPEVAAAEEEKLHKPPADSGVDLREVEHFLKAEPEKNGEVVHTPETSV
Chain of MCT4 (P35613 whole entry partner, looked up): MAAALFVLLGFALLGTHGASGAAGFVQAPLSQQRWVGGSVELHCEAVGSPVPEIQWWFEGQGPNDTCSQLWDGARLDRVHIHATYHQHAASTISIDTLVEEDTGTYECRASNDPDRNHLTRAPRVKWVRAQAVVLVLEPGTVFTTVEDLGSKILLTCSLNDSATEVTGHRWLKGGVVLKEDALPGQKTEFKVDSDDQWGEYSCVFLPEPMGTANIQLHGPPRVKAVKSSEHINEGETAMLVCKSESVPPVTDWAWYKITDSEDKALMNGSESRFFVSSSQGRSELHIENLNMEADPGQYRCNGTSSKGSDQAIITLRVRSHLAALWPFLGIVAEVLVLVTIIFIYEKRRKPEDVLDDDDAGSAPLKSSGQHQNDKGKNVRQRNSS
Summary of the method: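 MDA-MB-231 cells loaded with BCECF-AM, 5 min at 37° C, washed and resuspended in Tyrode's Solution, pH 7.4. MCT4 lactate/proton symport followed as the intracellular pH change reported by BCECF fluorescence.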

Rat microsome t1/2, min ([2]; rat liver microsomes 0.5 mg/mL, 2 μM compound)	Rat microsome % 60 min [2] [%]	Rat F [3] [%]	half-life [3] [h]	Vd [3] [L/kg]	Mouse microsome t1/2, min ([4]; mouse liver microsomes 0.5 mg/mL, 2 μM compound)	Mouse microsome % 60 min [4] [%]	IC50 [5] [nM]	Mouse F [6] [%]	half-life [6] [h]	Vd [6] [L/kg]	half-life at 2 µM [7] [h]	Human microsome % 60 min [7] [%]	IC50 [9] [nM]	half-life at 2 µM ([2]; rat liver microsomes 0.5 mg/mL, 2 μM compound, read-out: Rat microsome t1/2, min) [h]	half-life at 2 µM ([4]; mouse liver microsomes 0.5 mg/mL, 2 μM compound, read-out: Mouse microsome t1/2, min) [h]	SMILES	Mechanical Allodynia (Von Frey), Minimal Efficacious Dose [1] [mg/kg]	Difference in Weight Bearing, Minimal Efficacious Dose [8] [mg/kg]
∞	95	18	2.4	1.1	∞	99	32000	100	2.6	2	7.85	87	2	–	–	CC(C)COc1cccc(-c2cc(COC(C)(C)C(=O)O)nn2-c2cccc3cnn(C)c23)c1 [Example 170, 2-methyl-2-([1-(1-methyl-1H-indazol-7-yl)-5-[3-(2-methylpropoxy)phenyl]-1H-pyrazol-3-yl]methoxy]propanoic acid]	3	3
–	69	100	2.7	1	–	81	42000	100	4.2	1.9	1.72	64	1.9	1.82	3.27	CCn1ncc2ccc(-c3cc(COC(C)(C)C(=O)O)nn3-c3ccccc3N3CCCC3)cc21 [Example 229]	3	3
